# Laboratory results from patent US7531320B2, “Modulation of β-catenin/TCF-activated transcription” (priority 2003, dated 2009).
# Molecular target: T1, CBP (Homo sapiens, UniProt Q92793)
# T1 construct: endogenous in cells; host or cells: SW480 nuclear extract
# Test: COMPOUND 2 streptavidin-agarose affinity pull-down from SW480 nuclear extracts
# Assay type: binding
# Conditions: SW480 nuclear extracts, 20 μM preincubation
# Experimental: FIG. 1. COMPOUND 1 inhibits β-catenin/TCF transcription. • A(i) and A(ii). Structures of COMPOUND 1, COMPOUND 2, COMPOUND 3, COMPOUND 4, and COMPOUND 5. • B(i) and B(ii). […] SW480 cells (10^5), (FIG. 1B(i)), were transfected with β-catenin/TCF luciferase construct. Cells were treated with COMPOUND 1 (1-64 μM). 24 hours post treatment lysates were prepared and subjected to dual luciferase assay. The data is represented in different form in FIG. 1B(ii). • C. COMPOUND 1 has no effect on NFAT reporter construct. Stably transfected Jurkat cells, right panel, with an NFAT reporter construct, were stimulated with PMA (10 ng/ml)/lonomycin (1 μg/ml), and treated with COMPOUND 1 (0.781-50 μM). 24 hours post treatment lysates were prepared and subjected to dual luciferase assay. All experiments were performed in duplicate and the values plotted as means +/−standard deviation. • D. CBP is the molecular target of COMPOUND 1. Nuclear extracts of SW480 cells were incubated with streptavidin-agarose beads coated with COMPOUND 2 (25 μM). Beads were washed 3 times and the eluted were subjected to gel electrophoresis and immunoblotting, with anti-CBP antibodies. […] The lysates were desalted using G-25 1 cc columns (Pharmacia) to remove the unbound ^14C-labeled-COMPOUND 1, and ^14C-labeled-COMPOUND 1 incorporation was measured. […]
# T1 sequence (Q92793 whole entry): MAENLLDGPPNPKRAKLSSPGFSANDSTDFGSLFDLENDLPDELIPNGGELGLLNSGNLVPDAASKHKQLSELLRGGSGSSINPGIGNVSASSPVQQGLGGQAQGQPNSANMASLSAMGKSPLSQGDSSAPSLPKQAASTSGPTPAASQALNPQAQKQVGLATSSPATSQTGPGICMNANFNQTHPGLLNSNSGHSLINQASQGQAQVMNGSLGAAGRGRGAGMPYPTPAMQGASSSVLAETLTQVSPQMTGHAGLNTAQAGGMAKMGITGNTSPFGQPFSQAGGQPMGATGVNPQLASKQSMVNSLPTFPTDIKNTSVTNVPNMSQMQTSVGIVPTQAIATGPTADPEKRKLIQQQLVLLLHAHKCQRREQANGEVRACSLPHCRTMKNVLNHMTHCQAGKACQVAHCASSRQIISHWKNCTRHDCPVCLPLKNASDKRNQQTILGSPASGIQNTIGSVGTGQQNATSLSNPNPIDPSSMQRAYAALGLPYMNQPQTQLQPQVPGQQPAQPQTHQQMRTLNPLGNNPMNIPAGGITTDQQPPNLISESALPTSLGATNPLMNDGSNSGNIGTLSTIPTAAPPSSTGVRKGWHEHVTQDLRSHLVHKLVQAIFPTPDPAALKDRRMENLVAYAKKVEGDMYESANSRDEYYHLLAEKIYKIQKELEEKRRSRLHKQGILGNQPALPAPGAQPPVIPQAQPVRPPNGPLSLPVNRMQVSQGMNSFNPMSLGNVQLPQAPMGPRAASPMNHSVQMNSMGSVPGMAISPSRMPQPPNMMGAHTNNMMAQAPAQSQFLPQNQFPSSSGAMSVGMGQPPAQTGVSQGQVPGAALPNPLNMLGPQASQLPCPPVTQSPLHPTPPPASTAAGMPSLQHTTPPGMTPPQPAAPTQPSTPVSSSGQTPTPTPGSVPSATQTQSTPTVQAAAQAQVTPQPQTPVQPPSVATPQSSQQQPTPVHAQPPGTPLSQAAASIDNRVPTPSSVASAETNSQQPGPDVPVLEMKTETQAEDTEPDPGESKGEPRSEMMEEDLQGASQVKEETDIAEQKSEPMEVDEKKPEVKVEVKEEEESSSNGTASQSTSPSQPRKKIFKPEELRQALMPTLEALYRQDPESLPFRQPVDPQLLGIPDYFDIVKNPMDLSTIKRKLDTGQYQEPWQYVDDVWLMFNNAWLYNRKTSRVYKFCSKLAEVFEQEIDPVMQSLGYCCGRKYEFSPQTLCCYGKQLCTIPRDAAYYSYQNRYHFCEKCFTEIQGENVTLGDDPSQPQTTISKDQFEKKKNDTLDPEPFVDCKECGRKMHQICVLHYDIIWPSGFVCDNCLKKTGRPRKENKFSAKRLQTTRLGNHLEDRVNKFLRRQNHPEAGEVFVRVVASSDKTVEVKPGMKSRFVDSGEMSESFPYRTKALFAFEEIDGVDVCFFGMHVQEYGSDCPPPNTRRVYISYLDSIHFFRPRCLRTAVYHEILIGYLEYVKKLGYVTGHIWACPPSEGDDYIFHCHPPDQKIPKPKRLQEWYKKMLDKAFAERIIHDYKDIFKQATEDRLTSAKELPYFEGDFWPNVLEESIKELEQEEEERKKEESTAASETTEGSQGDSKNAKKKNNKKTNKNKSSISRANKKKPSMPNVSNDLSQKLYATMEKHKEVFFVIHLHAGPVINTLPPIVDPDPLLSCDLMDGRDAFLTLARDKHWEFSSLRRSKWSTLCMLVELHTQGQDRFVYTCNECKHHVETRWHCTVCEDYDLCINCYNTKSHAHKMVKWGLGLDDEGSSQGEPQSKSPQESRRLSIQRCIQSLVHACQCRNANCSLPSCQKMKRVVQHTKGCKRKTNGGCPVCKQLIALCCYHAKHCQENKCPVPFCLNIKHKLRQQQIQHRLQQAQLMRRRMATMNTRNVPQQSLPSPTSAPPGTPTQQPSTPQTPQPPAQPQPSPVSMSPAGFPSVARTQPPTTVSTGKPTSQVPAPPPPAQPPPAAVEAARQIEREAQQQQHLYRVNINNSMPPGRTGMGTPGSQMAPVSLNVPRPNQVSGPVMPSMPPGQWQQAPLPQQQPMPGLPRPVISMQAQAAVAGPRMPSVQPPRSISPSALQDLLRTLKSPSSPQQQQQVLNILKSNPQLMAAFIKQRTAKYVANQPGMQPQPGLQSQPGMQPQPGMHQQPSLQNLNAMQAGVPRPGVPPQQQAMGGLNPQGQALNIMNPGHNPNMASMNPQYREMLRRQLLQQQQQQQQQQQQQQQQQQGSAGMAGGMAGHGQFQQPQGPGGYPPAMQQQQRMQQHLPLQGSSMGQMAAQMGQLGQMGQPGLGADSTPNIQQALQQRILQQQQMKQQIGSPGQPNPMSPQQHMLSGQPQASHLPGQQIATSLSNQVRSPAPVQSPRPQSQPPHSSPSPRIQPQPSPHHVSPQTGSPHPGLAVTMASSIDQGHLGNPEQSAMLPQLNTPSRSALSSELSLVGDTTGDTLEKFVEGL
smiles,measurement,value
O=C1C(Cc2ccc(O)cc2)N2C(=O)CCN(C(=O)NCc3ccccc3)C2CN1Cc1cccc2ccccc12 (stereo not shown) [COMPOUND 1],Effect of preincubation with COMPOUND 1 on CBP binding to COMPOUND 2,blocked the binding of CBP
